The melting point is the temperature of the solid-liquid transition.

SMILES strings stand for the structures.

Molecule `CS(=O)(=O)NC1CCC(NC(=O)c2ccc(F)cc2)CC1` (stereo not drawn) yielded a melting point of 269 to 270 °C.

In turn, `COc1ccc2c(n1)C1(CO2)C(=O)N(Cc2ccc3c(c2)OCCO3)c2ccccc21` (stereo not drawn) came in with a melting point of 144 to 146 °C.

Molecule `CC(C)(OCc1cc2cc(Cl)ccc2n1S(=O)(=O)c1ccc2ncsc2c1)C(=O)O` yielded a melting point of 74 °C.

Molecule `CC(C)(O)c1ccc(-c2ccc(C(C)(C)O)cc2)cc1` yielded a melting point of 161 °C.

The molecule `COC(=O)CCC(=O)OC(=C1C(=O)N(C(N)=O)c2cc(Cl)c(F)cc21)c1cccs1` had a melting point of 179 to 183 °C.

Take `Brc1ccc2c(c1)/C(=C/CCN1CCCC1)c1cc(Br)ccc1OC2`: the melting point was 102 to 103 °C.

The molecule `O=C(O)C1Cc2c([nH]c3ccccc23)CN1C(=S)SCC=Cc1ccccc1` (stereo not drawn) registered a melting point of 200 to 202 °C.

Turning to `Oc1cccc2c1CC=CC2`, the melting point lay in the range of 70.5 to 72 °C.

For `CN(C)C=C(C#N)CC#N`, the melting point amounted to 49 °C.

The molecule `O=C(NCc1ccc(O)cc1)c1[nH]c2ccc(Cl)cc2c1S(=O)(=O)c1ccccc1` registered a melting point of 249 to 250 °C.

Consider `CCCCCc1c(C(C)C)nc(C(C)C)c(CO)c1-c1cccc(Cl)c1`, for which the melting point lay in the range of 94 to 95 °C.

For `COc1ccccc1N1CCN(CCC(N)=O)CC1`, the melting point was 145 to 146 °C.

Molecule `N[C@@H]1C(=C2OCc3ccccc32)[C@@H]2C[C@H]1C(=C1OCc3ccccc31)[C@H]2N` gave a melting point of 108 °C.

The molecule `CCOC(=O)c1cnn(-c2cccc(Cl)c2)c1Cl` yielded a melting point of 61 to 63 °C.

`OC(CNCCNc1ccc2[nH]ncc2c1)COc1ccccc1` (stereo not drawn) displayed a melting point of 150 to 165 °C.

In the case of `CC(C)Oc1c(C(=O)O)oc(C(=O)O)c1OC(C)C`, the melting point lay in the range of 131 to 132 °C.

Turning to `O=C(O)c1cccc2c1CCc1ccccc1S2`, the melting point lay within 186 to 187 °C.

The molecule `Cc1cc(CNC(=O)c2cc(N3CCN(Cc4ccc(F)cc4)C3=O)n[nH]2)n[nH]1` yielded a melting point of 254 to 255 °C.

`O=S1(=O)c2cccc3cccc(c23)N1CCCN1CCC(c2c[nH]c3ccccc23)CC1` showed a melting point of 162 °C.

`OC1CCNc2ncc(Br)cc21` (stereo not drawn) had a melting point of 125 to 128 °C.

For `COc1cc2c(cc1Br)C(c1ccccc1Cl)=NC1=C(C)NNC1=N2`, the melting point fell in the range of 210 to 211 °C.

In turn, `Cn1cc(-c2cccc(C(F)(F)F)c2)c(=O)n1-c1cccc(Cl)c1` displayed a melting point of 130 to 131 °C.

`Cc1nc(N2CCN(CC3CC3(F)F)C2=O)sc1C(=O)NCc1ncco1` (stereo not drawn): the melting point lay within 156 to 158 °C.

Regarding `CCCCCCCCCCCCCCCCCCOCC(Br)COCCCCCCCCCCCCCCCCCC`, the melting point was in the range of 47.9 to 48.7 °C.

`CC(C)(Cc1ccccc1)Nc1c(NCc2cc3cc(C#N)ccc3o2)c(=O)c1=O` gave a melting point of 233 to 235 °C.

For `CC(=NO)c1ccc(NS(C)(=O)=O)c(Oc2ccc(F)cc2F)c1`, the melting point is 150 to 151 °C.

As to `CC1(C)CC(=O)c2c(nc(Cc3ccc(O)c(F)c3)c3[nH]c4ccccc4c23)C1`, the melting point lay in the range of 216 to 218 °C.

`CCc1nc2c(O)c(CN(C)C)c(C(=O)N(C)C)cc2n1C`: the melting point was in the range of 183 to 185 °C.

Molecule `CCc1noc(-c2cn(-c3cccc(Cl)c3)cn2)n1` gave a melting point of 134 to 135 °C.

`Cc1c(C)c2c(c(C)c1NC=O)CC(C)(C)O2` had a melting point of 177 to 179 °C.

`CCCCCCCc1ccc(C(=O)CCC(=O)O)cc1` gave a melting point of 101 to 104 °C.

`Cc1nc(-c2ccc(C(F)(F)F)cc2)sc1N` registered a melting point of 146 to 148 °C.

Molecule `CC1(C)CCC(C)(C)c2cc(C#Cc3ccc(C=O)cc3)ccc21` had a melting point of 130 °C.

`CC1=Nc2ccc(F)c(F)c2OC1` gave a melting point of 51.2 °C.

`CC1(C)CCC(C)(C)c2cc(NCC(=O)O)ccc21` showed a melting point above 360 °C.

`COC(=O)C1=Cc2cc(Br)ccc2SCC1` gave a melting point of 94 to 95 °C.

In turn, `CC(C)CNC(=O)COc1ccc(C2=NNC(=O)NC2C)cc1Cl` (stereo not drawn) showed a melting point of 205 to 206 °C.

The molecule `Cc1cc(SCc2ccnc3[nH]c(-c4ccc(C(F)(F)F)cc4)nc23)ccc1OCC(=O)O` had a melting point of 239 to 241 °C.

Take `CC(C)(C)OC(=O)NC1CCc2ccccc2NC1=O` (stereo not drawn): the melting point lay in the range of 199 to 201 °C.

`Cc1cc(Cc2cc3cc(C(F)(F)F)ccc3n2S(=O)(=O)c2cccc(C(C)(C)C)c2)c(F)cc1C(=O)O`: the melting point was determined as 195 °C.

The molecule `CC1(C)CCC(=O)Nc2cc(OCCCN3CCN(c4cccc(Cl)c4Cl)CC3)ccc21` returned a melting point of 162 to 164 °C.

In turn, `OCCC1(c2ccccc2)CCNCC1` had a melting point of 120 °C.

With `CSc1cc2c(cc1C(F)(F)F)N(C(=O)Nc1cccc(C(=O)NCCN(C(C)C)C(C)C)c1)CC2`, the melting point is 97 to 99 °C.

The molecule `CCOc1ccc(Nc2ncc3c(n2)N(c2ccccc2)C(=O)N(c2c(Cl)cccc2Cl)C3)cc1` came in with a melting point of 224 to 226 °C.

Consider `CCCCCCCNC(=O)N(C)c1cccc(-c2ccc(CC(OCC)C(=O)O)cn2)c1` (stereo not drawn), for which the melting point lay in the range of 140 to 141 °C.

Molecule `CC(C)(C)c1csc(-c2cc3cc(OCc4ccccc4Cc4nnn[nH]4)ccc3o2)n1` displayed a melting point of 80 to 84 °C.

In the case of `CC(C)(C)C(=O)C(Br)C(c1ccc(Cl)cc1Cl)S(=O)(=O)c1ccccc1` (stereo not drawn), the melting point was 135 to 136 °C.

Molecule `CNc1nc(C#N)c(-c2ccncc2)s1` gave a melting point of 192 to 195 °C.

`CCCCNC(=O)S(=O)(=O)Nc1sc(CC(C)C)cc1-c1ccc(Cn2c(-c3ccccc3)nc(OC)c2C=O)cc1` yielded a melting point of 131 to 133 °C.

Turning to `CCOc1ccc(C2C(C(=O)c3ccc(C(C)C)cc3)=C(O)C(=O)N2c2ccc(C)nn2)cn1` (stereo not drawn), the melting point is 274 to 276 °C.

`COc1cc(C=C[N+](=O)[O-])c2c(c1OC)CCC2` showed a melting point of 128 to 130 °C.

Consider `CN1c2ccc(-c3ccc4ccccc4c3)cc2S(=O)(=O)c2cc(-c3ccc4ccccc4c3)ccc21`, for which the melting point is 328 to 332 °C.

In the case of `COc1ccc(-n2c3c(c(=O)c4cccnc42)CC(C)O3)cc1` (stereo not drawn), the melting point was in the range of 194 to 196 °C.

As to `Cc1cc(=O)c(OCc2ccccc2)c(C(=O)NC2CCC2)o1`, the melting point was 69.3 to 71 °C.

As to `Cn1c(=O)c2c(ncn2CCCCC#N)n(C)c1=O`, the melting point fell in the range of 118 to 120 °C.

In the case of `CCCCCCNC(=O)CSc1nc(Cl)cc(Nc2cccc(C)c2C)n1`, the melting point is 116 to 118 °C.

`CCCOC(=O)c1cc(NC(=O)c2ccccc2O)cc(Br)c1O` had a melting point of 198 to 200 °C.

Turning to `CSC1NC(=O)N(c2cccc(C(F)(F)F)c2)C(=O)N1`, the melting point lay in the range of 225 to 228 °C.

Molecule `O=C(O)c1cn(C2COC2)c2c(Cl)c(F)c(F)cc2c1=O` yielded a melting point above 300 °C.

On to `COc1cc(F)nc(NC(=O)NS(=O)(=O)c2ccccc2OS(C)(=O)=O)n1`, for which the melting point was in the range of 168 to 169 °C.

`CCCOC(=O)C(Cc1ccccc1)(Cn1cncn1)c1ccccc1OC` (stereo not drawn) showed a melting point of 129 to 130 °C.

The molecule `COc1cc(NCCCC(C)N2C(=O)c3ccccc3C2=O)c2nc(C)cc(C)c2c1OC` (stereo not drawn) came in with a melting point of 141 to 144 °C.

The molecule `COc1cc(C)c(C=CC(C)=CCCC=O)c(C)c1C` yielded a melting point of 42 to 45 °C.

As for `COC(=O)Cc1ccc(OCCNC(=O)C2Cc3ccccc3N2S(=O)(=O)c2ccc(-c3cc(C(F)(F)F)ccc3Cl)cc2)c(OC)c1` (stereo not drawn), the melting point lay within 51 to 58 °C.

`Cc1cc(C#N)cc(C(=O)Nc2ccnc(F)c2)n1` registered a melting point of 246 °C.

As for `CC1C(=O)Oc2cc(N3CCCCC3)ccc21` (stereo not drawn), the melting point was 78 to 80 °C.

Molecule `Cc1ncc(C(=O)N(C)Cc2cc(C(F)(F)F)cc(C(F)(F)F)c2)c(-c2ccccc2Br)n1` gave a melting point of 122 °C.

The molecule `c1ccc(COc2ccc3c(C45CC6CC(CC(C6)C4)C5)noc3c2)cc1` displayed a melting point of 132 °C.

Molecule `COC(=O)C[C@H](O)C[C@H](O)C=Cc1c(-c2ccc(F)cc2)c(-c2ccc(F)cc2)c(C(=O)Nc2ccc(S(N)(=O)=O)cc2)n1C(C)C` registered a melting point of 208 to 210 °C.

In turn, `CC(C)OC(=O)c1cc(-n2c(=O)c3c(n(C)c2=O)CCC3)c(F)cc1Br` yielded a melting point of 116 to 120 °C.

`N#CCC(=O)Nc1ccc(-c2ncc(C(=O)O)c(O)n2)cc1` gave a melting point above 280 °C.

Take `CC(C(=O)O)c1ccc(C(C)(C)C)cc1` (stereo not drawn): the melting point was 101 to 103 °C.

In turn, `CCCCn1c(CO)nc2c(Cl)nc3ccccc3c21` showed a melting point of 184 to 185 °C.

Molecule `CC(=O)OC1(C)CCC2C(C)(C)CCCC2(C)C1CCC(C)(O)C1CO1` (stereo not drawn) returned a melting point of 130 to 131 °C.

Molecule `Clc1nc(N2CCOCC2)c2nnn(C3CCOCC3)c2n1` came in with a melting point of 142 °C.

Turning to `O=S(=O)(Cc1ccc(Cc2ccc(NC3=NCCN3)cc2)cc1)NCc1ccccc1`, the melting point is 115 to 118 °C.

Turning to `CCOC(=O)C1=C(C)NC(N=CN(C)C)=C(C(=O)OCC)C1c1cccc([N+](=O)[O-])c1` (stereo not drawn), the melting point stood at 150 °C.

Regarding `O=C(c1ccc(Cl)cc1)c1c(Cl)nc2n(c1=O)CCS2`, the melting point was determined as 174 °C.

With `O=C(Nc1ncccn1)c1c(O)ccc2cc(-c3cccc(O)c3)ccc12`, the melting point was 156 °C.

As for `CCOC(=O)Cc1cccc(C(=O)c2ccc(Cl)cc2)c1N`, the melting point was in the range of 101 to 102 °C.

Take `ON=Cc1cc(-c2ccc(O)cc2)c2occc2c1`: the melting point was 192 to 194 °C.

In turn, `CN1C(=O)[C@H](NC(=O)CCC2CCCCC2)N=C(c2ccccc2)c2ccccc21` had a melting point of 144 to 146 °C.

In the case of `Cc1cc(C)cc(Sc2cc(=O)[nH]c(C)c2CO)c1`, the melting point is 268 to 270 °C.

`CCCCC[C@@H](CNC(=O)Nc1c(N2CCCC2)ncnc1N1CCCC1)c1cccc2c1OCO2` registered a melting point of 199 to 200 °C.

For the molecule `CC1(C)COC(c2ccccc2)(c2ccc(N)c([N+](=O)[O-])c2)OC1`, the melting point was determined as 140 °C.

In the case of `COc1ccc(Cn2ncc3c4c(cnc32)C(=O)NC4=O)cc1`, the melting point fell in the range of 196 to 197 °C.

In turn, `CN1CC(CN)Oc2c(-c3ccccc3C(F)(F)F)cccc21` (stereo not drawn) registered a melting point of 90 °C.

Regarding `CC(=O)c1cccc(NC(=O)CCCC(=O)Nc2cccc(C(C)=O)c2)c1`, the melting point lay in the range of 174 to 175 °C.
